The values that follow come from paper PMC10111413 (ACS Infectious Diseases, 2023).

≈ marks a conversion by molar mass, not a printed value. Where a SMILES comes first, the peptide text is derived from it. Bridges are numbered along the chain shown (N, C = ends). [ ]: non-standard residue; d: D form. The star is where a group is joined. ξ: configuration not given here. Hexanoyl(4ξ-Me) = CCC(C)CCC(=O)*; dOrn = NCCC[C@@H](N)C(=O)O; Orn = NCCC[C@H](N)C(=O)O; Dap = NC[C@H](N)C(=O)O

The test system of one data set is G. mellonella larvae. To be noted: in vivo. An excerpt: Given the promising in vitro activity of relacidamide (5), along with its high serum stability, low hemolytic activity, and ease of synthesis, we further evaluated its efficacy in an established in vivo infection model using G. mellonella larvae. The G. mellonella infection model has gained popularity in recent years and provides a convenient method to assess the in vivo effectiveness and toxicity of novel antibiotics.[15],[16] […] The larvae were first injected with either vehicle (PBS) or A. baumannii BV94 suspension in the right second proleg. The moth larvae were then injected in the left second proleg with either PBS (untreated), colistin at 100 mg/kg or 200 mg/kg, or relacidamide (5) at 100 mg/kg or 200 mg/kg. The G. mellonella larvae were then incubated for 72 h, and their survival was assessed twice per day. Relacidamide (5) induced 50% survival after 72 h at 100 mg/kg and 70% survival at 200 mg/kg, whereas none of the larvae treated with colistin survived, and only 10% of the untreated larvae survived after 72 h.

A further data set relates to A. baumannii NCTC 13304. The class given is cell-based. To be noted: NCTC 13304, 18 h. The procedure: (§1) VIII. Antimicrobial testing
(§2) Table S2. Minimum inhibitory concentrations (MICs) determined against panel of previously characterized colistin-resistant A. baumannii clinical isolates5
(§3) Strain Relacidine A (3a) Relacidine B (4a) Relacidamide (5) Colistin […]
(§4) aMIC values given in µg/ml.
(§5) All minimum inhibitory concentrations were determined according to Clinical and Standards Laboratory Institute (CLSI) guidelines. Blood agar plates were inoculated from glycerol stocks of the different A. baumannii strains used and then incubated for 16 h at 37 °C . Individually grown colonies were subsequently used to inoculate 5 mL aliquots of TSB that were then incubated at 37 °C. In parallel, the lipopeptide antibiotics DMSO stocks to be assessed were serially diluted with cation-adjusted MHB in polypropylene 96-well plates (50 µL in each well). Colistin sulfate stocks were dissolved in water before being diluted with cation-adjusted MHB. The A. baumannii inoculated TSB aliquots were incubated until an OD600 of around 0.5 was reached. The bacterial suspensions were then diluted with cation-adjusted MHB (2 x 10^5 CFU mL-1) and added to the microplates containing the test compounds (50 µL to each well). The well-plates were sealed with an adhesive membrane and after 18 h of incubation at 37 °C visually inspected for bacterial growth. MIC values reported are based on three technical replicates and defined as the lowest concentration of the compound that prevented visible

The subject of another data set is A. baumannii BV95. The format is cell-based. To be noted: BV95, 18 h. The procedure: as §1, §2, §3, §4, §5
The next data set deals with A. baumannii ATCC 17978. The format is cell-based. To be noted: ATCC 17978, 18 h. Here is the method:
as §1, §2, §3, §4, §5

The test system of the next data set is A. baumannii BV173. The class given is cell-based. Particulars: BV173, 18 h. Here is the method:
as §1, §2, §3, §4, §5

The test system of another data set is A. baumannii NCTC 13420. The class given is cell-based. Particulars: NCTC 13420, 18 h. The procedure:
as §1, §2, §3, §4, §5

The subject of another data set is A. baumannii BV172. The format is cell-based. To be noted: BV172, 18 h. Here is the method:
as §1, §2, §3, §4, §5

For another data set, the system named is A. baumannii HUMC1. The class given is cell-based. To be noted: HUMC1, 18 h. Here is the method:
as §1, §2, §3, §4, §5

The test system of the next data set is A. baumannii BV94. The format is cell-based. Particulars: BV94, 18 h. Here is the method:
as §1, §2, §3, §4, §5

The test system of another data set is A. baumannii LAC-4. The class given is cell-based. To be noted: LAC-4, 18 h. Here is the method:
as §1, §2, §3, §4, §5

A further data set relates to E. coli ATCC 25922. The class given is cell-based. Particulars: ATCC 25922, 18 h. Here is the method: (§6) The antibacterial activities of relacidine A (3a) and B (4a), along with diastereomers 3b and 4b–d and relacidamide (5), were assessed using a standard microbroth dilution assay to establish minimum inhibitory concentration (MIC) values against a panel of Gram-negative bacteria (Table 1). The MIC values measured for synthetic relacidine A (3a) and B (4a) agree well with those previously published.[9] […] Relacidine A (3a) and B (4a), as well as relacidamide (5), were further tested against a panel of colistin-resistant A. baumannii clinical isolates, which confirmed their ability to prevent the growth of colistin-resistant isolates (Supplemental Table S2). […] Also of interest was the finding that while relacidine B (4a) induced <1% hemolysis, a substitution of either the L-Ala or L-Ser to D-Ala or D-Ser increased hemolytic activity to 8–12%. […] The greater hydrolytic stability of relacidine B would appear to be attributable to the increased steric bulk of the Ala side chain next to the ester linkage (compared with the methylene of Gly in relacidine A), which may hinder the nucleophilic attack of water at the ester carbonyl.
(§7) Colistin sulfate was purchased from Activate Scientific. Kanamycin monosulfate was purchased from MP Biomedicals. E. coli ATCC 25922, S. aureus USA300 (ATCC BAA1717), and K. pneumoniae ATCC 13883 belong to the American Type Culture Collection (ATCC). P. aeruginosa PAO1 was kindly provided by L.H.C. Quarles Van Ufford of Utrecht University, Utrecht, The Netherlands. E. coli ATCC 25922 MCR-1 was transfected in-house using the pGDP2-MCR1 plasmid kindly provided by Yong-Xin Li of The University of Hong Kong, Hong Kong, China. Sheep blood agar plates (ref. PB5039A) were purchased from Thermo Scientific. Tryptic soy broth (ref. 02-200-500) was purchased from Scharlab. Mueller-Hinton broth (ref. X927.1) was purchased from Carl Roth. Polypropylene 96-wells plates (ref. 3879) were purchased from Corning.
(§8) MICs were determined according to Clinical and Standards Laboratory Institute (CLSI) guidelines. Blood agar plates were inoculated with glycerol stocks of E. coli ATCC 25922, K. pneumoniae ATCC 13883, P. aeruginosa PAO1, and S. aureus USA300. The inoculated agar plates were then incubated for 16 h at 37 °C. Individually grown colonies were subsequently used to inoculate 5 mL aliquots of tryptic soy broth (TSB) that were then incubated at 37 °C with shaking at 220 rpm. E. coli 25922 MCR-1 glycerol stock was used to inoculate 5 mL of TSB supplemented with kanamycin that was then incubated for 16 h at 37 °C with shaking at 220 rpm. The next day, the culture was diluted 100-fold in TSB supplemented with kanamycin and incubated at 37 °C with shaking at 220 rpm. In parallel, the lipopeptide antibiotic DMSO stocks to be assessed were serially diluted with Mueller Hinton broth (MHB) in polypropylene 96-well plates (50 μL in each well). Colistin sulfate stocks were dissolved in water before being diluted with MHB. Aliquots of the inoculated TSB were incubated until an OD600 of around 0.5 was reached. The bacterial suspensions were then diluted with MHB (2 × 10^5 cfu mL^–1) and added to the microplates containing the test compounds (50 μL to each well). The well plates were sealed with an adhesive membrane, and after 18 h of incubation at 37 °C with shaking at 600 rpm, the wells were visually inspected for bacterial growth. MIC values reported are based on three technical replicates and defined as the lowest concentration of the compound that prevented visible growth of bacteria.

The next data set relates to S. aureus USA300. The format is cell-based. To be noted: USA300, 18 h. The procedure:
as §6, §7, §8

The test system of another data set is P. aeruginosa PAO1. The format is cell-based. To be noted: PAO1, 18 h. Here is the method: as §6, §7, §8
The subject of another data set is K. pneumoniae ATCC 13883. The format is cell-based. To be noted: ATCC 13883, 18 h. The procedure: as §6, §7, §8
The subject of the next data set is E. coli ATCC 25922 mcr-1. The format is cell-based. Particulars: CLSI microbroth dilution, Mueller Hinton broth, 18 h at 37 °C, visual read-out, three technical replicates; mcr-1 colistin resistance plasmid. Here is the method:
as §6, §7, §8
(In general: In broth dilution the organism is exposed to a series of concentrations in liquid medium.)

Data set [1] in a line: human serum (obtained from Sigma Aldrich, product number: H4522). Particulars: 37 °C, up to 24 h.

With `CCC(C)CCC(=O)N[C@H](CO)C(=O)N[C@H](Cc1ccc(O)cc1)C(=O)N[C@H](Cc1c[nH]c2ccccc12)C(=O)N[C@H](CCCN)C(=O)N[C@@H](CCCN)C(=O)NCC(=O)N[C@H](CCCN)C(=O)N[C@@H](Cc1c[nH]c2ccccc12)C(=O)N[C@H]1CNC(=O)CNC(=O)[C@H](CO)NC(=O)CNC(=O)[C@H]([C@@H](C)CC)NC1=O` (stereo partly shown) [compound 5, Relacidamide] ({Hexanoyl(4ξ-Me)}-[dS][dY][dW][dOrn][Orn]G[dOrn]W[Dap]IGSG; lactam 9-C), in the data set with G. mellonella larvae, the “tolerability in G. mellonella larvae” value was “well tolerated up to the highest tested dose”. Further, the “MIC A. baumannii NCTC 13304” value in the data set with A. baumannii NCTC 13304 was determined as 4 µg/mL (≈ 2.61 µM). The “MIC A. baumannii BV95” value against A. baumannii BV95 came out at 8 µg/mL (≈ 5.21 µM). The “MIC A. baumannii ATCC 17978” value against A. baumannii ATCC 17978 came out at 4 µg/mL (≈ 2.61 µM). Besides, the “MIC A. baumannii BV173” value in the data set with A. baumannii BV173 is 16 µg/mL (≈ 10.4 µM). In the data set with A. baumannii NCTC 13420, the “MIC A. baumannii NCTC 13420” value turned out to be 16 µg/mL (≈ 10.4 µM). In the data set with A. baumannii BV172, the “MIC A. baumannii BV172” value amounted to 16 µg/mL (≈ 10.4 µM). In addition, in the data set on A. baumannii HUMC1, the “MIC A. baumannii HUMC1” value came out at 8 µg/mL (≈ 5.21 µM). The “MIC A. baumannii BV94” value against A. baumannii BV94 turned out to be 8 µg/mL (≈ 5.21 µM). Also, the “MIC A. baumannii LAC-4” value against A. baumannii LAC-4 worked out at 8 µg/mL (≈ 5.21 µM). In addition, the “MIC E. coli ATCC 25922” value with E. coli ATCC 25922 fell in the range of 2 to 4 µg/mL. For the same compound, the “MIC S. aureus USA300” value in the data set on S. aureus USA300 is greater than 32 µg/mL. The “MIC P. aeruginosa PAO1” value in the data set on P. aeruginosa PAO1 was determined as 8 µg/mL (≈ 5.21 µM). For the same compound, the “MIC K. pneumoniae ATCC 13883” value against K. pneumoniae ATCC 13883 was 4 µg/mL (≈ 2.61 µM). Also, in the data set on E. coli ATCC 25922 mcr-1, the “MIC E. coli ATCC 25922 mcr-1” value lay within 2 to 4 µg/mL.
In the case of “D-Ser1 D-Tyr2 D-Trp3 D-Orn4 Orn5 Gly6 D-Orn7 Trp8 Thr9 Ile10 Gly11 Ser12 Ala13 Lipid”, in [1], the not cleaved entry is listed as “highly resistant to degradation in human serum even after 24 h of incubation”.
